Values after ≈ are worked out from the molar mass of the structure shown. Like-named read-outs stand apart in the source and are kept apart here.
Key:
P. aeruginosa DSM1117 = assay: MIC, standard microdilution assay, growing P. aeruginosa; format: cell-based, Pseudomonas aeruginosa; details: P. aeruginosa; CA-MHB pH 7.4; read-out: MIC (μM) CA-MHB
How it was run: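 Standard microdilution protocol, triplicate wells. For S. flexneri the growth medium is TSB. The other three strains are grown in HEPES-buffered (40 mM, pH 7.4) CA-MHB, and UPEC is also run at pH 5.5 in LPM containing 30 mM MES.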

non-growing UPEC CFT073 [1] = assay: Dilution-regrowth assay (screen, hit validation, dose-response) on stationary-phase UPEC; format: cell-based, Escherichia coli; details: E. coli, regrowth delay of non-growing bacteria, 24 h treatment, OD600 6 h after 2500-fold dilution, read-out: EC50
How it was run: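 Regrowth (OD600 after 6 h, 37 °C) of diluted non-growing CFT073, following 24 h compound treatment of 24 h stationary cultures, defines activity relative to untreated control. Screen at 20 µM, validation at 20, 10, 5 µM (duplicates), dose–response in three biological replicates fitted by five-parameter logistic.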

[2] = test system: non-growing S. aureus DSM2569; assay: Dilution-regrowth assay (OD600, start-growth-time) on stationary-phase S. aureus; format: cell-based, Staphylococcus aureus; details: S. aureus; regrowth delay of non-growing bacteria, 1:4 CA-MHB pH 7.4, 24 h treatment, OD600 8 h after dilution; read-out: EC50
How it was run: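 Non-growing S. aureus was tested in a dilution-regrowth format. Cells were cultured and treated for 24 h in 1:4 diluted CA-MHB, pH 7.4, then diluted into drug-free medium, and OD600 was measured every 20 min. Start-growth-time was the time OD600 passed 0.12. Dose-response curves were fitted with a five-parameter logistic equation to derive EC50.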

non-growing UPEC CFT073 [3] = assay: Dose-dependent killing analysis (CFU spot-plating) of stationary-phase UPEC; format: cell-based, Escherichia coli;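 on average Δlog10(CFU/ml) (killing): drug concentration in µM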
How it was run: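 Killing assessed by CFU counts: overnight 37 °C LB agar spot plates (10 μl drops of 10-fold PBS dilutions) scored at the lowest dilution with distinct colonies. Samples were compound-treated non-growing UPEC CFT073, 200 μl per well. Performed as three biological replicates.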

[4] = E. coli in 1:4 CA-MHB (pH 7.4), drug conc. 0.25
[5] = E. coli in 1:4 CA-MHB (pH 7.4), drug conc. 0.5
[6] = E. coli in 1:4 CA-MHB (pH 7.4), drug conc. 1
[7] = E. coli in 1:4 CA-MHB (pH 7.4), drug conc. 2.5
[8] = E. coli in 1:4 CA-MHB (pH 7.4), drug conc. 5
[9] = E. coli in 1:4 CA-MHB (pH 7.4), drug conc. 10
[10] = E. coli in LPM (pH 5.5), drug conc. 0.25
[11] = E. coli in LPM (pH 5.5), drug conc. 0.5
[12] = E. coli in LPM (pH 5.5), drug conc. 1
[13] = E. coli in LPM (pH 5.5), drug conc. 2.5
[14] = E. coli in LPM (pH 5.5), drug conc. 5
[15] = E. coli in LPM (pH 5.5), drug conc. 10

## N#Cc1c(N2C[C@@H]3NCCO[C@H]3C2)c(F)cc2c(=O)c(C(=O)O)cn(C3CC3)c12 [Finafloxacin]
P. aeruginosa DSM1117
  MIC: 20 µM (≈ 7.97 µg/mL)
non-growing UPEC CFT073 [1]; LPM pH 5.5
  EC50: 13.6 µM
non-growing UPEC CFT073 [1]; pH 7.4, 1:4 CA-MHB
  EC50: 7.19 µM
[2]
  EC50: 4.66 µM
non-growing UPEC CFT073 [3]; 20 µM, preliminary experiments
  bactericidal effect against stationary-phase UPEC cultures: bactericidal effects
non-growing UPEC CFT073 [3]; [4]
  log10(CFU/ml) after treatment, replicate 1: 9.322 log10(CFU/ml)
  log10(CFU/ml) after treatment, replicate 2: 8.602 log10(CFU/ml)
  log10(CFU/ml) after treatment, replicate 3: 8.301 log10(CFU/ml)
non-growing UPEC CFT073 [3]; E. coli in 1:4 CA-MHB (pH 7.4), drug conc. 0.25, vs 8.977 before treatment
  average Δlog10(CFU/ml) (killing): 0.236 log10(CFU/ml)
non-growing UPEC CFT073 [3]; [5]
  log10(CFU/ml) after treatment, replicate 1: 9.255 log10(CFU/ml)
  log10(CFU/ml) after treatment, replicate 2: 8.903 log10(CFU/ml)
  log10(CFU/ml) after treatment, replicate 3: 8.845 log10(CFU/ml)
non-growing UPEC CFT073 [3]; E. coli in 1:4 CA-MHB (pH 7.4), drug conc. 0.5, vs 8.977 before treatment
  average Δlog10(CFU/ml) (killing): -0.024 log10(CFU/ml)
non-growing UPEC CFT073 [3]; [6]
  log10(CFU/ml) after treatment, replicate 1: 9.322 log10(CFU/ml)
  log10(CFU/ml) after treatment, replicate 2: 8.845 log10(CFU/ml)
  log10(CFU/ml) after treatment, replicate 3: 8.699 log10(CFU/ml)
non-growing UPEC CFT073 [3]; E. coli in 1:4 CA-MHB (pH 7.4), drug conc. 1, vs 8.977 before treatment
  average Δlog10(CFU/ml) (killing): 0.022 log10(CFU/ml)
non-growing UPEC CFT073 [3]; [7]
  log10(CFU/ml) after treatment, replicate 1: 9.176 log10(CFU/ml)
  log10(CFU/ml) after treatment, replicate 2: 9.041 log10(CFU/ml)
  log10(CFU/ml) after treatment, replicate 3: 8.230 log10(CFU/ml)
non-growing UPEC CFT073 [3]; E. coli in 1:4 CA-MHB (pH 7.4), drug conc. 2.5, vs 8.977 before treatment
  average Δlog10(CFU/ml) (killing): 0.161 log10(CFU/ml)
non-growing UPEC CFT073 [3]; [8]
  log10(CFU/ml) after treatment, replicate 1: 8.362 log10(CFU/ml)
  log10(CFU/ml) after treatment, replicate 2: 8.230 log10(CFU/ml)
  log10(CFU/ml) after treatment, replicate 3: 8.000 log10(CFU/ml)
non-growing UPEC CFT073 [3]; E. coli in 1:4 CA-MHB (pH 7.4), drug conc. 5, vs 8.977 before treatment
  average Δlog10(CFU/ml) (killing): 0.780 log10(CFU/ml)
non-growing UPEC CFT073 [3]; [9]
  log10(CFU/ml) after treatment, replicate 1: 7.491 log10(CFU/ml)
  log10(CFU/ml) after treatment, replicate 2: 7.954 log10(CFU/ml)
  log10(CFU/ml) after treatment, replicate 3: 8.079 log10(CFU/ml)
non-growing UPEC CFT073 [3]; E. coli in 1:4 CA-MHB (pH 7.4), drug conc. 10, vs 8.977 before treatment
  average Δlog10(CFU/ml) (killing): 1.136 log10(CFU/ml)
non-growing UPEC CFT073 [3]; [10]
  log10(CFU/ml) after treatment, replicate 1: 7.114 log10(CFU/ml)
  log10(CFU/ml) after treatment, replicate 2: 6.230 log10(CFU/ml)
  log10(CFU/ml) after treatment, replicate 3: 8.000 log10(CFU/ml)
non-growing UPEC CFT073 [3]; E. coli in LPM (pH 5.5), drug conc. 0.25, vs 7.350 before treatment
  average Δlog10(CFU/ml) (killing): 0.236 log10(CFU/ml)
non-growing UPEC CFT073 [3]; [11]
  log10(CFU/ml) after treatment, replicate 1: 7.114 log10(CFU/ml)
  log10(CFU/ml) after treatment, replicate 2: 6.447 log10(CFU/ml)
  log10(CFU/ml) after treatment, replicate 3: 7.699 log10(CFU/ml)
non-growing UPEC CFT073 [3]; E. coli in LPM (pH 5.5), drug conc. 0.5, vs 7.350 before treatment
  average Δlog10(CFU/ml) (killing): 0.264 log10(CFU/ml)
non-growing UPEC CFT073 [3]; [12]
  log10(CFU/ml) after treatment, replicate 1: 6.845 log10(CFU/ml)
  log10(CFU/ml) after treatment, replicate 2: 6.342 log10(CFU/ml)
  log10(CFU/ml) after treatment, replicate 3: 7.204 log10(CFU/ml)
non-growing UPEC CFT073 [3]; E. coli in LPM (pH 5.5), drug conc. 1, vs 7.350 before treatment
  average Δlog10(CFU/ml) (killing): 0.553 log10(CFU/ml)
non-growing UPEC CFT073 [3]; [13]
  log10(CFU/ml) after treatment, replicate 1: 6.301 log10(CFU/ml)
  log10(CFU/ml) after treatment, replicate 2: 6.699 log10(CFU/ml)
  log10(CFU/ml) after treatment, replicate 3: 6.580 log10(CFU/ml)
non-growing UPEC CFT073 [3]; E. coli in LPM (pH 5.5), drug conc. 2.5, vs 7.350 before treatment
  average Δlog10(CFU/ml) (killing): 0.824 log10(CFU/ml)
non-growing UPEC CFT073 [3]; [14]
  log10(CFU/ml) after treatment, replicate 1: 6.000 log10(CFU/ml)
  log10(CFU/ml) after treatment, replicate 2: 6.301 log10(CFU/ml)
  log10(CFU/ml) after treatment, replicate 3: 5.903 log10(CFU/ml)
non-growing UPEC CFT073 [3]; E. coli in LPM (pH 5.5), drug conc. 5, vs 7.350 before treatment
  average Δlog10(CFU/ml) (killing): 1.282 log10(CFU/ml)
non-growing UPEC CFT073 [3]; [15]
  log10(CFU/ml) after treatment, replicate 1: 6.146 log10(CFU/ml)
  log10(CFU/ml) after treatment, replicate 2: 6.114 log10(CFU/ml)
  log10(CFU/ml) after treatment, replicate 3: 5.544 log10(CFU/ml)
non-growing UPEC CFT073 [3]; E. coli in LPM (pH 5.5), drug conc. 10, vs 7.350 before treatment
  average Δlog10(CFU/ml) (killing): 1.416 log10(CFU/ml)
